{"source": "patent US4680172A", "about": "“Devices and methods for treating memory impairment” (Ciba-Geigy Corporation, priority 1985, dated 1987)", "key": {"[1]": {"assay": "Dissociation to the free base in buffer", "type": "physicochemical", "settings": "pH 10 buffer", "excerpt": "(§1) The partion coefficient (K) of a compound between an aqueous phase and mineral oil has been used as an indication of its potential to diffuse across skin. Permeability appears to be optimal when the partition coefficient is 1. Arecoline in pH 10 buffer (99.9% dissociation to the free base) yielded partition coefficients of 0.756 and 0.654 for concentrations of 1.0 M and 0.01 M, respectively. Thus, arecoline in its free base form is expected to have good in vitro transdermal flux."}, "[2]": {"assay": "Stability of arecoline in solution", "type": "physicochemical", "settings": "alkaline buffers"}, "[3]": {"assay": "Partition coefficient (K) between aqueous phase and mineral oil", "type": "physicochemical", "settings": "pH 10 buffer", "excerpt": "as §1"}, "[4]": {"assay": "Transdermal diffusion (flux) of aqueous arecoline through human cadaver skin, Franz diffusion cell", "type": "in vitro ADME", "procedure": "In order further to test the permeability of arecoline to human skin, the transdermal diffusion of aqueous arecoline was monitored using human cadaver skin mounted in a Franz diffusion cell; see Current Problems in Dermatology, 7, 58 (1978) and the description of Franz diffusion cells and apparatus published by the Crown Glass Company, a copy of which may be found in the file history of this case. The flux, J, of each solution was calculated from a plot of change in concentration versus time.\nThe transdermal diffusion of arecoline was studied in several aqueous buffers from pH values of 6.4 to 9.0.\nMost of the skin samples were obtained from the back area of human cadavers. There was no systematic study to determine if the choice of donor-side would change the rate; however, it is presumed that the rate will be fastest in portions of the anatomy where the stratum corneum is relatively thin (chest, back, anterior forearm) and slowest where the stratum corneum is thickest (heel of hand, bottom of foot).\nFranz diffusion cells utilize the finite dose technique of in vitro drug delivery. Human cadaver skin was mounted in a diffusion chamber where it remined in constant contact with solution on both sides. The stratum corneum was in contact with a thin layer of concentrated drug in solution (donor side). The receiver side contained a constantly stirred, isotonic saline solution maintained at 32° C. Diffusion of the compound was monitored by removing aliquots from the receiver side and analyzing these samples by HPLC.\nThe human skin used in all experiments was obtained from a medical school. All cadavers were refrigerated at death and excision was performed within 24 hours post-mortem. The skin was first treated with Betadine surgical scrub (Povidone-Iodine solution) and surfactant (the skin was scrubbed if dirty), rinsed with sterile water and then with Betadine rinse solution. The skin was then air-dried and swabbed with mineral oil prior to excision. A dermatome was used for excising the skin to […]. (-350 microns) thickness. Saline solution was used to rinse the excess mineral oil from the skin prior to treatment with Eagle's minimole essential medium (minerals, amino acids and sugars). To this solution, 15% glycerol was added and the skin was allowed to set for two hours. It was then removed from solution, packaged and frozen in liquid N2. The samples, packed in dry ice were shipped in styrofoam containers and kept frozen until use.\nFor the flux experiments, skin samples were removed from the freezer and thawed immediately prior to use. The samples were examined visually for any tears or holes, then cut into smaller pieces, peeled from the gauze backing and mounted across the diffusion chamber with the stratum corneum side up. The donor-side cap was placed on top and the unit was clamped in place. The receiver-side was filled with a saline solution and stirred. The material in the receiver-side was sterile normal saline solution, which was adjusted to approximate the tonicity of the buffer solution on the donor-side. One ml of the drug solution was pipeted onto the donor-side of the skin and 50 microliter aliguots were withdrawn from the receiver-side at the various time intervals. These samples were injected onto an HPLC column under the aforementioned conditions.\nThe donor solutions were prepared as 1.0 M (approximately 20% W/V) arecoline HCl or arecoline HBr in a phosphate, citrate, borate buffer adjusted to various pH values. Each flux experiment was repeated three to five times."}}, "note": "Several values for one entry are separate records, joined by “and”; a condition that tells them apart may be missing. Equal entries are not always repeated.", "data": [{"smiles": "COC(=O)C1=CCCN(C)C1", "note": "[arecoline]", "values": [{"measurement": "dissociation to the free base", "setting": "[1]", "result": 99.9, "unit": "%"}, {"measurement": "stability of the free base in solution", "setting": "[2]", "result": "rapidly hydrolizes"}, {"measurement": "partition coefficient (K)", "setting": "[3]; 0.01 M", "result": 0.654}, {"measurement": "partition coefficient (K)", "setting": "[3]; 1.0 M", "result": 0.756}, {"measurement": "rate of arecoline diffusion versus pH", "setting": "[4]; aqueous buffers, pH 6.4 to 9.0", "result": "increases with increasing pH values"}, {"measurement": "difference in rate between Caucasian and Negro skin", "setting": "[4]; lower pH values (below 8)", "result": "differences were observed between these two skin types"}, {"measurement": "Flux", "setting": "[4]; pH 6.4 of 1M solution, skin RC (Right Chest), donor N", "result": 0.017, "unit": "mg/cm^2 /hr."}, {"measurement": "Mean Flux", "setting": "[4]; pH 6.4 of 1M solution, skin donor N", "result": 0.017, "unit": "mg/cm^2 /hr."}, {"measurement": "Mean Flux", "setting": "[4]; pH 7.0 of 1M solution, does not include the Negro skin", "result": 0.069, "unit": "mg/cm^2 /hr."}, {"measurement": "Flux", "setting": "[4]; pH 7.0 of 1M solution, skin RB (Right Back), donor C", "result": "0.0545 mg/cm^2 /hr. and 0.0678 mg/cm^2 /hr. and 0.0833 mg/cm^2 /hr."}, {"measurement": "Flux", "setting": "[4]; pH 7.0 of 1M solution, skin RB (Right Back), donor N", "result": "0.0101 mg/cm^2 /hr. and 0.0057 mg/cm^2 /hr."}, {"measurement": "Mean Flux", "setting": "[4]; pH 7.5 of 1M solution, does not include the Negro skin", "result": 0.185, "unit": "mg/cm^2 /hr."}, {"measurement": "Flux", "setting": "[4]; pH 7.5 of 1M solution, skin RB (Right Back), donor C", "result": "0.1651 mg/cm^2 /hr. and 0.1486 mg/cm^2 /hr. and 0.2246 mg/cm^2 /hr. and 0.2003 mg/cm^2 /hr."}, {"measurement": "Flux", "setting": "[4]; pH 7.5 of 1M solution, skin RB (Right Back), donor N", "result": 0.0383, "unit": "mg/cm^2 /hr."}, {"measurement": "Mean Flux", "setting": "[4]; pH 8.0 of 1M solution, C and N skin", "result": 0.448, "unit": "mg/cm^2 /hr."}, {"measurement": "Flux", "setting": "[4]; pH 8.0 of 1M solution, skin LB (Left Back), donor C", "result": "0.4524 mg/cm^2 /hr. and 0.3817 mg/cm^2 /hr."}, {"measurement": "amount transferred across skin", "setting": "[4]; pH 9.0, across 5 cm^2 in 24 hours", "result": "approximately 85 mgs"}, {"measurement": "Mean Flux", "setting": "[4]; pH 9.0 of 1M solution, C and N skin", "result": 0.837, "unit": "mg/cm^2 /hr."}, {"measurement": "Flux", "setting": "[4]; pH 9.0 of 1M solution, skin LB (Left Back), donor C", "result": "0.8868 mg/cm^2 /hr. and 0.8154 mg/cm^2 /hr."}, {"measurement": "Flux", "setting": "[4]; pH 9.0 of 1M solution, skin RB (Right Back), donor C", "result": 0.8551, "unit": "mg/cm^2 /hr."}, {"measurement": "difference in rate between Caucasian and Negro skin", "setting": "[4]; pH values of 8 and 9", "result": "There does not appear to be any difference in rate"}]}]}
